Measurements reported in US9149038B2, “4-amino-6-(heterocyclic)picolinates and 6-amino-2-(heterocyclic)pyrimidine-4-carboxylates and their use as herbicides” (Dow AgroSciences LLC, priority 2013, dated 2015).
Where two headings read alike, the source gives them in different places.

Columns and labels:
[1] = system: Key Grass and Sedge Weeds as well as Grass Crops; assay: Post-Emergent Test II: postemergent herbicidal activity, visual rating after 14 d (Table 8); type: in vivo; settings: post-emergence, 336 h; for pest or weed control at 35 g/ha: 35 g ai/ha; for pest or weed control at 70 g/ha: 70 g ai/ha; for pest or weed control at 140 g/ha: 140 g ai/ha
Outline: (§1)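 Post-emergence foliar spray, 187 L/ha, first/second true leaf stage plants in potting mix (pH 6.0-6.8). Rates: top rate and 2-fold serial dilutions to 1/16×. Solvent-blank controls. Readout: visual % kill at 14 d.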

[2] = system: Key Broadleaf Weed and Crop Species; assay: Post-Emergent Test II: postemergent herbicidal activity, visual rating after 14 d (Table 7); type: in vivo; settings: post-emergence, 336 h; for pest or weed control at 35 g/ha: 35 g ai/ha; for pest or weed control at 70 g/ha: 70 g ai/ha; for pest or weed control at 140 g/ha: 140 g ai/ha
Outline: as §1

[3] = barnyardgrass (Echinochloa crus-galli), read-out: Visual Growth Reduction (%) 14 Days After Application ECHCG
[4] = giant foxtail (Setaria faberi), read-out: Visual Growth Reduction (%) 14 Days After Application SETFA
[5] = maize, corn (Zea mays), read-out: Visual Growth Reduction (%) 14 Days After Application ZEAMX
[6] = rice (Oryza sativa), read-out: Visual Growth Reduction (%) 14 Days After Application ORYSA
[7] = wheat, spring (Triticum aestivum), read-out: Visual Growth Reduction (%) 14 Days After Application TRZAS
[8] = yellow nutsedge (Cyperus esculentus), read-out: Visual Growth Reduction (%) 14 Days After Application CYPES
[9] = lambsquarters (Chenopodium album), read-out: Visual Growth Reduction (%) 14 Days After Application CHEAL
[10] = oilseed rape, canola (Brassica napus), read-out: Visual Growth Reduction (%) 14 Days After Application BRSNN
[11] = redroot pigweed (Amaranthus retroflexus), read-out: Visual Growth Reduction (%) 14 Days After Application AMARE
[12] = sunflower (Helianthus annuus), read-out: Visual Growth Reduction (%) 14 Days After Application HELAN
[13] = velvetleaf (Abutilon theophrasti), read-out: Visual Growth Reduction (%) 14 Days After Application ABUTH
[14] = wild poinsettia (Euphorbia heterophylla), read-out: Visual Growth Reduction (%) 14 Days After Application EPHHL

Compound	pest or weed control at 35 g/ha [1, 3]	pest or weed control at 70 g/ha [1, 3]	pest or weed control at 140 g/ha [1, 3]	pest or weed control at 35 g/ha [1, 5]	pest or weed control at 70 g/ha [1, 5]	pest or weed control at 140 g/ha [1, 5]	pest or weed control at 35 g/ha [1, 6]	pest or weed control at 70 g/ha [1, 6]	pest or weed control at 140 g/ha [1, 6]	pest or weed control at 35 g/ha [1, 7]	pest or weed control at 70 g/ha [1, 7]	pest or weed control at 140 g/ha [1, 7]	pest or weed control at 35 g/ha [1, 8]	pest or weed control at 70 g/ha [1, 8]	pest or weed control at 140 g/ha [1, 8]	pest or weed control at 35 g/ha [2, 9]	pest or weed control at 70 g/ha [2, 9]	pest or weed control at 140 g/ha [2, 9]	pest or weed control at 35 g/ha [2, 10]	pest or weed control at 70 g/ha [2, 10]	further results
C=Cc1c(C(=O)O)nc(-c2ccc3c(c2)OC(F)(F)O3)c(F)c1N [Compound 30]	75 to 84%	75 to 84%	75 to 84%	45 to 59%	60 to 74%	75 to 84%	0 to 29%	0 to 29%	0 to 29%	0 to 29%	0 to 29%	0 to 29%	0 to 29%	95 to 100%	95 to 100%	0 to 29%	0 to 29%	0 to 29%	45 to 59%	60 to 74%	pest or weed control at 35 g/ha [1, 4]: 0 to 29%; pest or weed control at 70 g/ha [1, 4]: 0 to 29%; pest or weed control at 140 g/ha [1, 4]: 0 to 29%; pest or weed control at 140 g/ha [2, 10]: 75 to 84%; pest or weed control at 35 g/ha [2, 11]: 0 to 29%; pest or weed control at 70 g/ha [2, 11]: 0 to 29%; pest or weed control at 140 g/ha [2, 11]: 0 to 29%; pest or weed control at 35 g/ha [2, 12]: 0 to 29%; pest or weed control at 70 g/ha [2, 12]: 0 to 29%; pest or weed control at 140 g/ha [2, 12]: 85 to 94%; pest or weed control at 35 g/ha [2, 13]: 45 to 59%; pest or weed control at 70 g/ha [2, 13]: 75 to 84%; pest or weed control at 140 g/ha [2, 13]: 75 to 84%; pest or weed control at 35 g/ha [2, 14]: 60 to 74%; pest or weed control at 70 g/ha [2, 14]: 75 to 84%; pest or weed control at 140 g/ha [2, 14]: 85 to 94%
C=Cc1c(C(=O)OC)nc(-c2cc3c(cc2F)OCO3)c(F)c1N [Compound 31]	0 to 29%	60 to 74%	75 to 84%	0 to 29%	30 to 44%	45 to 59%	0 to 29%	0 to 29%	0 to 29%	0 to 29%	0 to 29%	0 to 29%	0 to 29%	0 to 29%	0 to 29%	0 to 29%	0 to 29%	0 to 29%	0 to 29%	0 to 29%	pest or weed control at 35 g/ha [1, 4]: 0 to 29%; pest or weed control at 70 g/ha [1, 4]: 0 to 29%; pest or weed control at 140 g/ha [1, 4]: 0 to 29%; pest or weed control at 140 g/ha [2, 10]: 45 to 59%; pest or weed control at 35 g/ha [2, 11]: 85 to 94%; pest or weed control at 70 g/ha [2, 11]: 85 to 94%; pest or weed control at 140 g/ha [2, 11]: 95 to 100%; pest or weed control at 35 g/ha [2, 12]: 45 to 59%; pest or weed control at 70 g/ha [2, 12]: 85 to 94%; pest or weed control at 140 g/ha [2, 12]: 85 to 94%; pest or weed control at 35 g/ha [2, 13]: 0 to 29%; pest or weed control at 70 g/ha [2, 13]: 0 to 29%; pest or weed control at 140 g/ha [2, 13]: 45 to 59%; pest or weed control at 35 g/ha [2, 14]: 95 to 100%; pest or weed control at 70 g/ha [2, 14]: 95 to 100%; pest or weed control at 140 g/ha [2, 14]: 95 to 100%
COC(=O)c1nc(-c2cc3c(cc2F)OC(F)(F)O3)cc(N)c1Cl [Compound 32]	60 to 74%	75 to 84%	75 to 84%	60 to 74%	60 to 74%	75 to 84%	0 to 29%	0 to 29%	0 to 29%	45 to 59%	60 to 74%	60 to 74%	95 to 100%	95 to 100%	95 to 100%	95 to 100%	95 to 100%	95 to 100%	60 to 74%	60 to 74%	pest or weed control at 140 g/ha [2, 10]: 75 to 84%; pest or weed control at 35 g/ha [2, 11]: 0 to 29%; pest or weed control at 70 g/ha [2, 11]: 45 to 59%; pest or weed control at 140 g/ha [2, 11]: 75 to 84%; pest or weed control at 35 g/ha [2, 12]: 75 to 84%; pest or weed control at 70 g/ha [2, 12]: 75 to 84%; pest or weed control at 140 g/ha [2, 12]: 75 to 84%; pest or weed control at 35 g/ha [2, 13]: 85 to 94%; pest or weed control at 70 g/ha [2, 13]: 85 to 94%; pest or weed control at 140 g/ha [2, 13]: 85 to 94%; pest or weed control at 35 g/ha [2, 14]: 0 to 29%; pest or weed control at 70 g/ha [2, 14]: 60 to 74%; pest or weed control at 140 g/ha [2, 14]: 60 to 74%
